{"source": "patent US7572888B2", "about": "“Methods of assaying receptor activity and constructs useful in such methods” (Duke University, priority 1997, dated 2009)", "key": {"[1]": {"biological_target": "T1, μORs (Mus musculus, UniProt P42866)", "T1 construct": "from tissue; host or cells: crude membranes of mouse hypothalamus, brain stem and periaqueductal gray", "T1 sequence (P42866 whole entry)": "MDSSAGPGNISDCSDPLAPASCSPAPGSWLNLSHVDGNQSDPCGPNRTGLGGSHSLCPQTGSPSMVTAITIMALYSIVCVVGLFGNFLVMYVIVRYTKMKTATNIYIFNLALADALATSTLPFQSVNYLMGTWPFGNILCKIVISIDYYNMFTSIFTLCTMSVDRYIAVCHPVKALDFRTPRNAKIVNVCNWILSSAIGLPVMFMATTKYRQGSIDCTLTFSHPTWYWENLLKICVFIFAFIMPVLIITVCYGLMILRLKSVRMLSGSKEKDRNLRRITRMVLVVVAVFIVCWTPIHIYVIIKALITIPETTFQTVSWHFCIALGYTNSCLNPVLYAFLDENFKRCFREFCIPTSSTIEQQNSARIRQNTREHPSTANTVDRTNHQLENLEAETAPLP", "assay": "Agonist-stimulated [35S]GTPγS binding to periaqueductal gray membranes", "type": "biochemical", "conditions": "PAG membranes, 50-10,000 nM, 2 hour, 30° C."}, "[2]": {"tested_on": "dopamine receptor", "assay": "Locomotor responses to dopamine receptor stimulation", "type": "in vivo, mouse", "conditions": "data not shown", "source_text": "For example, locomotor responses to dopamine receptor stimulation by cocaine and apornorphine were not enhanced (data not shown). […] Other regulatory elements, such as GRKs or βarrestin-1, could compensate for the lack of βarrestin-2, or the receptors could vary in their requirement for βarrestin interaction for their regulation."}, "[3]": {"tested_on": "μOR", "conditions": "cited from earlier work"}, "[4]": {"assay": "Rectal body temperature after morphine", "type": "in vivo, mouse", "conditions": "after morphine treatment"}, "[5]": {"biological_target": "μ opioid receptor (μOR) (Mus musculus, UniProt P42866)", "sequence (P42866 whole entry)": "as above", "conditions": "given before morphine, wild type and βarr2-KO mice (data not shown)", "procedure": "The “response” was defined by the animal either licking the fore- or hind-paws or flicking the hind-paws. […] To avoid tissue damage the animals were not exposed to the plate for more than 30 seconds. […] WT (n=6), heterozygotes (+/−, n=5) and KO (n=9) mice were analyzed together in the same experiment.\nThe degree of antinociception was determined by measuring latency of hot plate (56° C.) responses (FIG. 2). […] After 10 min., antinociception was assessed once more. […] Means±S.E.M. are shown.\nAfter 30 minutes or 2 hours, wild-type mice were killed and blood was collected in vials containing sodium fluoride and potassium-oxalate."}}}
{"smiles": "C[C@@H](NC(=O)[C@@H](N)Cc1ccc(O)cc1)C(=O)NCC(=O)N(C)[C@@H](Cc1ccccc1)C(=O)NCCO", "note": "[DAMGO, [D-Ala^2, MePhe^4, Gly^5-ol]enkephalin]", "values": [{"measurement": "[35S]GTPγS binding in βarr2-KO membranes compared to wild-type", "setting": "[1]", "result": "stimulated more [^35S]GTPγS binding"}]}
{"smiles": "CN1CCc2cccc3c2[C@H]1Cc1ccc(O)c(O)c1-3", "note": "[apornorphine]", "values": [{"measurement": "locomotor responses in βarr2-KO vs wild type", "setting": "[2]", "result": "not enhanced"}]}
{"smiles": "CN1CC[C@]23c4c5ccc(O)c4O[C@H]2[C@@H](O)C=C[C@H]3[C@H]1C5", "note": "[morphine]", "values": [{"measurement": "internalization of the μOR", "setting": "[3]; transfected cells, rat μOR or mouse MOR1", "result": "fails to induce the internalization of the μOR"}, {"measurement": "translocation of GFP-tagged βarrestin-2 to μOR", "setting": "[3]; μOR overexpressed in cell culture, exposure to morphine", "result": "fails to translocate"}, {"measurement": "change in body temperature, βarr2-KO vs wild-type", "setting": "[4]", "result": "greater drop in body temperature"}]}
{"smiles": "Oc1ccc2c3c1O[C@H]1c4[nH]c5ccccc5c4C[C@@]4(O)[C@@H](C2)N(CC2CC2)CC[C@]314", "note": "[naltrindole]", "values": [{"measurement": "inhibition of morphine analgesia", "setting": "[5]", "result": "did not inhibit analgesia"}]}
{"smiles": "Oc1ccc2c3c1O[C@H]1c4[nH]c5c(c4C[C@@]4(O)[C@@H](C2)N(CC2CC2)CC[C@]314)C[C@@]1(O)[C@H]2Cc3ccc(O)c4c3[C@@]1(CCN2CC1CC1)[C@H]5O4", "note": "[nor-binaltorphimine]", "values": [{"measurement": "inhibition of morphine analgesia", "setting": "[5]", "result": "did not inhibit analgesia"}]}
